The test system of experiment [1] is Wnt ligand-induced signaling in HEK293 cells. The experiment can be described thus: Wnt-responsive Super-TOpFlash (STF) luciferase reporter gene assay. It counts as cell-based. Conditions: Homo sapiens, Wnt3A condition medium. On the procedure:
Cellular Reporter Gene Assay to Determine Compound Inhibition of Wnt Signaling Activity
Compound activity in inhibiting Wnt ligand-induced signaling was measured using a Wnt-responsive Super-TOpFlash (STF) luciferase reporter gene assay in HEK293 cells. On day 1 of the assay, cells were plated at a density of 8000 cells per well of 384-well plate in 25 μl medium containing 5% fetal bovine serum (FBS). On the second day, […] condition medium (CM) produced from mouse L cells was added to the cells to induce Wnt signaling, followed by addition of 5 μL of compounds each well in 10-point serial dilution. On the third day, the luciferase activity was measured by the Bright-Glo™ Luciferase Assay System following manufacture's protocol (Promega, E2620). The Inhibition was calculated as: (Maximum Wnt-induced signaling−Sample)/(Maximum Wnt-induced signaling−Background)*100. “Maximum Wnt-induced signaling” is the STF signal level induced by 20% Wnt3A CM without compound; and “Background” is the STF signal level without the addition of Wnt3A CM or compound.
On the technique in general: Reporter assays use an easily measured gene product as a stand-in for the process of interest.

Experiment [2] deals with tankyrase 2 protein PARP domain, TNKS2P (Homo sapiens (Human), UniProt Q9H2K2). The experiment can be described thus: TNKS2 autoparsylation assay (LC/MS detection of nicotinamide). Conditions: read-out: TNKS2 AP IC50, 20 nM enzyme, 250 μM β-NAD+, 60 min.
Sequence of tankyrase 2 protein PARP domain, TNKS2P (Q9H2K2 959-1164): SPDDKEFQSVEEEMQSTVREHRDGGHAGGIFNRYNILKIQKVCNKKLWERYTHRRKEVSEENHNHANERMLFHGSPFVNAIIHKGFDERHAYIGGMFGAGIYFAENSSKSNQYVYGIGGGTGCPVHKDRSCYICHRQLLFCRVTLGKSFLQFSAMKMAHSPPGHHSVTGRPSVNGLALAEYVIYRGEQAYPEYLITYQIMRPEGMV
Description: (§1) Biochemical Assay to Determine Compound Inhibition of TNKS Enzyme Activity
(§2) The autoparsylation activity of the TNKS 1/2 or PARP1/2 enzymes was measured by the liquid chromatography-mass spectrometry (LC/MS) detection of nicotinamide as readout. Compound activity in inhibiting the TNKS and PARP autoparsylation was evaluated by IC50 measurements. […] For the background control wells, 10 μL of the 5× quenching solution per well was added prior to the addition of β-NAD^+. The % Inhibition was calculated as: (Control−Sample)/(Control−Background)*100.
In experiment [3] the target is human tankyrase 1 PARP catalytic domain, TNKS1P (Homo sapiens (Human), UniProt O95271). The experiment can be described thus: TNKS1 autoparsylation assay (LC/MS detection of nicotinamide). Conditions: read-out: TNKS1 AP IC50, 20 nM enzyme, 250 μM β-NAD+, 60 min.
Sequence of human tankyrase 1 PARP catalytic domain, TNKS1P (O95271 1112-1317): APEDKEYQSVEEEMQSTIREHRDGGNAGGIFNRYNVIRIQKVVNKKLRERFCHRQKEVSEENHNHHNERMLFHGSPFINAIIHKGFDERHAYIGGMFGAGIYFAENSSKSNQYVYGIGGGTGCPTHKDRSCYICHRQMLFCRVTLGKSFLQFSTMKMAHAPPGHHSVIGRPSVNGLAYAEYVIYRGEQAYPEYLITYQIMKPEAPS
Description: as §1, §2
The test system of experiment [4] is Axin2 protein in SW480 cells. The experiment is described as follows: Cellular ELISA assay of Axin2 protein stabilization. It counts as cell-based. Conditions: Homo sapiens, 24 hrs, read-out: Axin AC50. How it is done: Cellular ELISA Assay to Determine Compound Effect on Stabilizing the Axin2 Protein Compound activity in stabilizing the Axin2 protein was measured by Sandwich Enzyme-Linked Immuosorbent (ELISA) assay in the colorectal cell line SW480. 30,000 SW480 cells were seeded per well in 96-well plate and incubated overnight prior to compound treatment. […] Cells were then washed with 100 μL of cold Phosphate Buffer Saline (PBS), and lysed in 125 μl of cold 1× lysis buffer (Cell Signaling Technology, 9803) supplemented with Protease inhibitor (Roche, 11836170) and Phosphatase inhibitors (Sigma, P2850, P5726). For the ELISA assay, anti Axin-2 capture antibody (Strategic Diagnostics) antibody was diluted to a concentration of 1 μg/ml (1:1000) in Carbonate Coating buffer, pH 9.2 (Sigma, C3041-50CAP). […], of the diluted anti Axin-2 capture antibody per well was then used to coat the 96-well ELISA plate (Thermo Electron Corp., MicroLite 1 flat bottom plate #7571) overnight at 4° C. […] After blocking, plates were then washed three times with 300 μl/well of wash solution. 100 μL of prepared SW480 cell lysate was then added to each well and incubated at room temperature for 2 hours while shaking gently. After washing, 100 μL of Biotinylated anti-Axin2 antibody (CST, 2151) was added to each well and incubated room temperature for 2 hours. 100 μL of Streptavidin-HRP (R&D systems, DY998) diluted 1:200 in 1% BSA/PBS was then added in each well and incubate for 30 mins at R/T in the dark.
On the technique in general: In an ELISA, binding on a coated surface is turned into a signal by an enzyme label.

In experiment [5] the test system is Non-small lung cancer ABC-1 cells. The experiment can be described thus: Cellular proliferation assay (CellTiter-Glo). Conditions: Homo sapiens, 72 h; ABC-1 cells, 3 days of compound treatment; read-out: ABC-1 IC50. It counts as cell-based. For orientation: Cellular ATP, detected with luciferase, serves as a proxy for viable cell number.
Description: Cellular Proliferation Assay to Determine Compound Inhibition of Cancer Cell Growth
Viable cells were measured after 3 days of compound treatment using the CellTiter-Glo assay (Promega, G7570). Assay was performed following the manufacture protocol.

SMILES strings stand for the structures.

By IC50 is commonly meant the concentration that inhibits the measured activity by half. For `O=C(c1ccc(F)cc1)C1CCN(CC(=O)N(Cc2ccncc2)Cc2nc3c(c(=O)[nH]2)COCC3)CC1` [Example 20, 2-(4-(4-Fluorobenzoyl)piperidin-1-yl)-N-((4-oxo-4,5,7,8-tetrahydro-3H-pyrano[4,3-d]pyrimidin-2-yl)methyl)-N-(pyridin-4-ylmethyl)acetamide], the IC50 in experiment [1] came to 2.39 ± 0.25 µM; in experiment [2] it was 0.206 ± 0.002 µM; in experiment [3] it was 0.845 ± 0.012 µM.
As for `O=C(c1ccc(F)cc1)C1CCN(CC(=O)N(Cc2cccnc2)Cc2nc3c(c(=O)[nH]2)COCC3)CC1` [Example 21, 2-(4-(4-Fluorobenzoyl)piperidin-1-yl)-N-((4-oxo-4,5,7,8-tetrahydro-3H-pyrano[4,3-d]pyrimidin-2-yl)methyl)-N-(pyridin-3-ylmethyl)acetamide], the values for the IC50 in experiment [1], in experiment [2] and in experiment [3] were 0.46 ± 0.28 µM, 0.042 ± 0.001 µM and 0.214 ± 0.002 µM, respectively.
As a reminder, the AC50 is the midpoint of the concentration-response curve, whichever way the signal moves. As to `CN(Cc1nc2c(c(=O)[nH]1)COCC2)C(=O)CN1CCC(C(=O)c2ccc(F)cc2)CC1` [Example 30], the AC50 in experiment [4] came out at 6 ± 0.5 µM. Besides, in experiment [3], the IC50 was 0.241 ± 0.03 µM.
For `CCCN(Cc1nc2c(c(=O)[nH]1)COCC2)C(=O)CN1CCC(C(=O)c2ccc(F)cc2)CC1` [Example 34, 2-(4-(4-Fluorobenzoyl)piperidin-1-yl)-N-((4-oxo-4,5,7,8-tetrahydro-3H-pyrano[4,3-d]pyrimidin-2-yl)methyl)-N-propylacetamide], the AC50 in experiment [4] stood at 1.01 ± 0.07 µM. Further, in experiment [3], the IC50 stood at 0.046 ± 0.001 µM.
On to `C[C@@H](c1ccc(F)cc1)N(Cc1nc2c(c(=O)[nH]1)COCC2)C(=O)CN1CCC(C(=O)c2ccc(F)cc2)CC1` [Example 35, (S)-2-(4-(4-Fluorobenzoyl)piperidin-1-yl)-N-(1-(4-fluorophenyl)ethyl)-N-((4-oxo-4,5,7,8-tetrahydro-3H-pyrano[4,3-d]pyrimidin-2-yl)methyl)acetamide], for which the IC50 in experiment [1] was 0.179 ± 0.02 µM; in experiment [2], 0.068 ± 0.001 µM; in experiment [3], 0.256 ± 0.004 µM.
For `O=C(c1ccc(F)cc1)C1CCN(CC(=O)N(Cc2nc3c(c(=O)[nH]2)COCC3)Cc2ccc(S(=O)(=O)N3CCOCC3)s2)CC1` [Example 47, 2-[4-(4-Fluoro-benzoyl)-piperidin-1-yl]-N-[5-(morpholine-4-sulfonyl)-thiophen-2-ylmethyl]-N-(4-oxo-3,5,7,8-tetrahydro-4H-pyrano[4,3-d]pyrimidin-2-ylmethyl)-acetamide], the IC50 is 1.83 ± 0.39 µM in experiment [1], 0.066 ± 0.002 µM in experiment [2] and 0.561 ± 0.049 µM in experiment [3]. In addition, in experiment [4], the AC50 came out at 5 ± 2.3 µM.
Regarding `COc1ccc(-c2nnc(C3CCN(CC(=O)NCc4nc5c(c(=O)[nH]4)COCC5)CC3)o2)cc1` [Example 56, 2-{4-[5-(4-Methoxy-phenyl)-[1,3,4]oxadiazol-2-yl]-piperidin-1-yl}-N-(4-oxo-3,5,7,8-tetrahydro-4H-pyrano[4,3-d]pyrimidin-2-ylmethyl)-acetamide], the IC50 in experiment [1] worked out at 0.207 ± 0.021 µM; in experiment [2] it was 0.089 ± 0.003 µM; in experiment [5] it was 0.641 µM; in experiment [3], 0.548 ± 0.039 µM.
On to `COc1ccc2c(c1)CCCN2C(=O)C1CCN(CC(=O)NCc2nc3c(c(=O)[nH]2)COCC3)CC1` [Example 80, 2-(4-(6-Methoxy-1,2,3,4-tetrahydroquinoline-1-carbonyl)piperidin-1-yl)-N-((4-oxo-4,5,7,8-tetrahydro-3H-pyrano[4,3-d]pyrimidin-2-yl)methyl)acetamide], for which the IC50 is 6.4 ± 1.1 µM in experiment [1], 31.2 µM in experiment [2] and greater than 19 µM in experiment [3].
In the case of `O=C(CN1CCC(C(=O)N2CCc3c(Cl)cccc3C2)CC1)NCc1nc2c(c(=O)[nH]1)COCC2` [Example 81, 2-(4-(5-Chloro-1,2,3,4-tetrahydroisoquinoline-2-carbonyl)piperidin-1-yl)-N-((4-oxo-4,5,7,8-tetrahydro-3H-pyrano[4,3-d]pyrimidin-2-yl)methyl)acetamide], the results for the IC50 in experiment [1], in experiment [2] and in experiment [3] were greater than 10 µM, 0.244 ± 0.024 µM and 0.761 ± 0.018 µM, respectively.

The values above are taken from US9181266B2, “2-piperidin-1-yl-acetamide compounds for use as tankyrase inhibitors” (NOVARTIS AG, priority 2011, dated 2015).
